Assay [1] relates to chronic cyclophosphamide (CYP)-induced overactive bladder mouse model. The experiment in a line: Overactive Bladder In Vivo Model (chronic cyclophosphamide-induced). The method, then:
The in vivo effect of PDE4 inhibitors on OAB is studied with a chronic cyclophosphamide (CYP)-induced overactive bladder mouse model adapted from Boudes et al., Neurourol. Urodynam. 2011. In a typical study, female C57/Bl6 mice, approximately 20 grams in body weight (Harlan Laboratories, Inc., Indianapolis, Ind.) are used. Mice are randomized by body weight into groups one day before the start of the study. Mice are individually housed and maintained on a 12 hour light/dark cycle at 22° C. with ad lib access to food (TD 2014 with 0.72% Ca and 0.61% P, 990 IU/g D3, Teklad™, Madison, Wis.) and water. Animals receive cyclophosphamide (dissolved in physiological saline) i.p. administration at 100 mg/kg on days 1, 3, 5, and 7 to chronically induce OAB. The vehicle control group received daily vehicle (HEC 1%/Tween 80 0.25%/Antifoam 0.05%) administered orally. All other groups are administered orally tadalafil at 10 mg/kg in combination with 0.1, 1.0, or 10.0 mg/kg of test compound daily at a volume of 200 μl/mouse. On day 8, mice are housed in urine collection chambers with a filter paper placed underneath chamber. Prior to urine collection, gavages of 1 ml water are given to each mouse. Urine is collected from 6 pm to 10 pm (i.e. for 4 hrs). Gel cups (DietGel™76A) are supplied as water source during the 4 hour period. The filter paper is changed every hour. Voiding frequency and volume/void are calculated using Image J software (NIH). Data are statistically analyzed with JMP8® software (Cary, N.C.).
All treatment groups receive a fixed dose of 10 mg/kg of tadalafil.

For another assay, the target named is T1, PDE4B (Homo sapiens, UniProt Q07343).
T1 construct: made in house; host or cells: Saccharomyces cerevisiae lacking endogenous PDEs
The experiment in a line: PDE4 Inhibition In Vitro Assay. The class given is biochemical. As to conditions: human recombinant PDE4B. The protocol: The phosphodiesterase assays are performed essentially according to the method described in Loughney, K., et al., J. Biol. Chem., 271, pp. 796-806 (1996). PDE4A, PDE4B, PDE4C, PDE4D, and PDE5 human recombinant proteins are expressed and purified from Saccharomyes cerevisiae that lack endogenous PDEs. The phosphodiesterase enzymes are diluted on ice with enzyme dilution buffer (25 mM Tris, pH 7.5, 0.1 mM DTT, 5.0 mM MgCl2, 100 mM NaCl, 5 μM ZnSO4, 100 μg/mL BSA) to give approximately 20%-40% hydrolysis of cyclic nucleotide monophosphate (cNMP) in the absence of inhibitor.
The stock solution of test compounds are diluted on the Beckman BioMek™ 1000 workstation to span a concentration range of 4.5 log units in 0.5 log increments. The DMSO concentration in the final test system is 2.5% for all PDE enzymes. The final test compound concentration tested ranged from 0.03 nM to 1 μM.
The assay is performed in a 96-well microtiter plate format on a Beckman BioMek™ 1000 robotic station. […] The amount of radioactivity released as phosphate is determined in a Wallac MicroBeta Plate™ counter.
The reduced data at each concentration of inhibitor is analyzed using a four-, three- or two-parameter logistic dose response model to provide an IC50 value.

Setting [2] is: Example 2 0.1, 1.0, 10.0 mg/kg given with tadalafil 10 mg/kg.

pIC50: −log10 of the molar value. Where “and” joins values, the source holds several entries; their conditions need not be identical. Equal entries are not always repeated.

T1 sequence (Q07343 whole entry): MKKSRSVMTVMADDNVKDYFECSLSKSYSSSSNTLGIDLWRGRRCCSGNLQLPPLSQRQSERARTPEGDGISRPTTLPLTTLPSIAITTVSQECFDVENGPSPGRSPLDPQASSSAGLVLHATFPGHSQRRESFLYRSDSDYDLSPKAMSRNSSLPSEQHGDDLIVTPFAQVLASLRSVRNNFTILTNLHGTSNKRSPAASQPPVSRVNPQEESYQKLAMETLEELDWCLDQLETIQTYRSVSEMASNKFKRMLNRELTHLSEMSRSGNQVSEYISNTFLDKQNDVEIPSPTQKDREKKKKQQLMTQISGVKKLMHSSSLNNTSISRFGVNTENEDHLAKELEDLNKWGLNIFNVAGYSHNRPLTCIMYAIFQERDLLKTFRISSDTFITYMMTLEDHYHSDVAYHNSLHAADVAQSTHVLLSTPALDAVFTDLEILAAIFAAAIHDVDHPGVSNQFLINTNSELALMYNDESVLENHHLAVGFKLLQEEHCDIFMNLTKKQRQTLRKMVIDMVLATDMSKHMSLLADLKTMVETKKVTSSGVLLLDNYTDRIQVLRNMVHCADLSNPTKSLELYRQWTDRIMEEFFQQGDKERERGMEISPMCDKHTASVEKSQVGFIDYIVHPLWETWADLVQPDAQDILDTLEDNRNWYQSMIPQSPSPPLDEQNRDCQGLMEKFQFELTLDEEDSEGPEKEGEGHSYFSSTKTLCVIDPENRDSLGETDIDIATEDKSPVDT

In the case of `COc1ccc([C@@H]2CN(C(=O)[C@@H](O)CO)C[C@@]2(C)[C@@H](C)O)cc1OC1CN(c2ccc(C)cn2)C1` [Example 2, (2S)-3-[(3S,4S)-3-[(1R)-1-hydroxyethyl]-4-(4-methoxy-3-{[1-(5-methylpyridin-2-yl)azetidin-3-yl]oxy}phenyl)-3-methylpyrrolidin-1-yl]-3-oxopropane-1,2-diol], in assay [1] (Example 2 0.1 mg/kg + tadalafil 10 mg/kg, oral daily, day 8, CYP-treated female C57/Bl6 mice, vehicle 16.5), the “Mean Voiding Frequency” value is given as 10 no./4 hr. In assay [1] (setting [2]), the “effect on urinary frequency (in words)” value is recorded as “significantly reduces urinary frequency in a dose-dependent fashion” and the “effect on volume/void (in words)” value is reported as “increases of volume/void are also observed in a dose-dependent fashion”. The pIC50 – broadly, the IC50 on a negative log10 scale, so that one unit is a factor of ten – on PDE4B was > 8.00 and 9.24.
For the compound `COc1ccc([C@@H]2CN(C(=O)[C@@H](O)CO)C[C@@]2(C)[C@@H](C)O)cc1OC1CN(c2ccccn2)C1` [Example 1, (2S)-3-[(3S,4S)-3-[(1R)-1-hydroxyethyl]-4-{4-methoxy-3-[(1-pyridin-2-ylazetidin-3-yl)oxy]phenyl}-3-methylpyrrolidin-1-yl]-3-oxopropane-1,2-diol], the pIC50 on PDE4B was more than 8.00.

Source of the values: patent US9266859B2, “Azetidinyloxyphenylpyrrolidine compounds” (Eli Lilly and Company, priority 2013, dated 2016).
